# According to publication PMC5084024, “The Identification of Biochanin A as a Potent and Selective β-Site App-Cleaving Enzyme 1 (Bace1) Inhibitor” (Nutrients, 2016):
# Biological target: T1, BACE1 (β-site APP-cleaving enzyme 1) (Homo sapiens, UniProt P56817)
# T1 construct: human recombinant BACE1, baculovirus-expressed
# Assay: FRET enzyme assay with recombinant BACE1; Dixon and Lineweaver-Burk kinetics (Ki […])
# Format: biochemical
# T1 sequence (P56817 46-457): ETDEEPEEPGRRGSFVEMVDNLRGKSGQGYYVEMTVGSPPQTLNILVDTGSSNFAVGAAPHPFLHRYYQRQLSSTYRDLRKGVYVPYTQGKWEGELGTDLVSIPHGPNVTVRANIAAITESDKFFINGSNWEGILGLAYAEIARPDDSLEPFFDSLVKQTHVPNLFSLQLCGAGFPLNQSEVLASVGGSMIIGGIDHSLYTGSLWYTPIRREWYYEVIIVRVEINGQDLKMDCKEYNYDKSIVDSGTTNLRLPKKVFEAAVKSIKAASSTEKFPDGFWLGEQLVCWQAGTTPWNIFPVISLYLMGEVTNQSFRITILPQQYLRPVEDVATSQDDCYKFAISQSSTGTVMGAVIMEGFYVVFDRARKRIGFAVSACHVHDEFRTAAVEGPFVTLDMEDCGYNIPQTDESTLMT
smiles,measurement,value
"COc1ccc(-c2coc3cc(O)cc(O)c3c2=O)cc1 [Biochanin A, 5,7-dihydroxy-3-(4-methoxyphenyl)chromen-4-one]",IC50,28 µM
